# Molecular target: T1, Nuclear factor erythroid 2-related factor 2 (Homo sapiens, UniProt Q16236)
# T1 sequence (Q16236 whole entry): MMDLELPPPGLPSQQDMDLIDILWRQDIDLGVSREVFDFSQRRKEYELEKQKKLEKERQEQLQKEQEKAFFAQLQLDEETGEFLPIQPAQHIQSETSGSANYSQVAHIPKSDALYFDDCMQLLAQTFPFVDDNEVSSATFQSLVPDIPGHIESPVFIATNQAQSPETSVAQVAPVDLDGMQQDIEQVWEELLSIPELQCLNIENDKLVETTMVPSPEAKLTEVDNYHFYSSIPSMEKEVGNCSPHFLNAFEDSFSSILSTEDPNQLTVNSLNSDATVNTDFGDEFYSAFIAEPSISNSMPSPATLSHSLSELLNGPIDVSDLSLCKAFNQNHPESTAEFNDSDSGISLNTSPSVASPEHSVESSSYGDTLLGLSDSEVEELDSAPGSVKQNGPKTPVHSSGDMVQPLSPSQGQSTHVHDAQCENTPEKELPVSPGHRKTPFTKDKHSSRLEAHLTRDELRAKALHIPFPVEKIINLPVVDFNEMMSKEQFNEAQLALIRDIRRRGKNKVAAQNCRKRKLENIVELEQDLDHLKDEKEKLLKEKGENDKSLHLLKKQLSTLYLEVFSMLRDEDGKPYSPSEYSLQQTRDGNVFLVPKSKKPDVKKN
# Assay: Activation of ED-tagged Nrf2 in human U2OS cells co-expressing Keap1 assessed as induction of NRF2 translocation to nucleus after 6 hrs by beta-galactosidase based chemiluminescent assay
# Format: cell-based
row,EC50 [nM],SMILES
1,943,COc1cccc(OS(=O)(=O)/C=C/c2cccc(Cl)c2)c1
2,> 10000,O=S(=O)(/C=C/c1ccccc1Cl)Nc1ccccc1
3,237,COc1ccc(OS(=O)(=O)/C=C/c2ccccc2Cl)cc1
4,1160,COc1ccc(OS(=O)(=O)/C=C/c2ccc(Cl)cc2)cc1
